Data taken from the supplement of paper PMC6045584.
± gives the standard deviation of the averaged measurements.

Tests used:
MK-1775 = compound: C=CCn1c(=O)c2cnc(Nc3ccc(N4CCN(C)CC4)cc3)nc2n1-c1cccc(C(C)(C)O)n1 [MK-1775]; assay: surviving fraction relative to DMSO-only wells; higher = less growth inhibition; conditions: exposure time: 5 days
Method in brief: (§1)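 Log-phase tumour cell lines, 250–500 cells per well in 384-well plates, received inhibitors at 0.5, 1, 5, 10, 50, 100, 500 and 1000 nM continuously for five days, starting 24 hours after seeding. Viability was quantified with CellTiter-Glo luminescence and normalised to the median of DMSO-only wells to give surviving fraction. Three screens were run per line, and a line stayed in only with replicate Pearson r >0.7 and median Z' >0.3.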

BLEOMYCIN = compound: Cc1c(N)nc([C@H](CC(N)=O)NC[C@H](N)C(N)=O)nc1C(=O)N[C@H](C(=O)N[C@H](C)[C@@H](O)[C@H](C)C(=O)N[C@H](C(=O)NCCc1nc(-c2nc(C(=O)NCCC[S+](C)C)cs2)cs1)[C@@H](C)O)[C@@H](OC1OC(CO)C(O)C(O)C1OC1OC(CO)C(O)C(OC(N)=O)C1O)c1cnc[nH]1 [BLEOMYCIN]; assay: as above; conditions: exposure time: 5 days
Method in brief: as §1

| Test System | surviving fraction (MK-1775; 0.5 nM) | surviving fraction (MK-1775; 1 nM) | surviving fraction (MK-1775; 5 nM) | surviving fraction (MK-1775; 10 nM) | surviving fraction (MK-1775; 50 nM) | surviving fraction (MK-1775; 100 nM) | surviving fraction (MK-1775; 500 nM) | surviving fraction (MK-1775; 1000 nM) | surviving fraction (BLEOMYCIN; 0.5 nM) | surviving fraction (BLEOMYCIN; 1 nM) | surviving fraction (BLEOMYCIN; 5 nM) | surviving fraction (BLEOMYCIN; 10 nM) | surviving fraction (BLEOMYCIN; 50 nM) | surviving fraction (BLEOMYCIN; 100 nM) | surviving fraction (BLEOMYCIN; 500 nM) | surviving fraction (BLEOMYCIN; 1000 nM) |
| --- | --- | --- | --- | --- | --- | --- | --- | --- | --- | --- | --- | --- | --- | --- | --- | --- |
| DU4475 BREAST | 1.1 ± 0.26 | 1.15 ± 0.088 | 1.01 ± 0.068 | 0.889 ± 0.059 | 0.686 ± 0.28 | 0.554 ± 0.23 | 0.102 ± 0.034 | 0.037 ± 0.0056 | 0.675 ± 0.13 | 0.792 ± 0.17 | 0.774 ± 0.2 | 0.77 ± 0.075 | 0.742 ± 0.13 | 0.62 ± 0.1 | 0.49 ± 0.11 | 0.378 ± 0.13 |
| MHM BONE | 0.981 ± 0.02 | 0.9753 ± 0.0067 | 1.04 ± 0.015 | 1.01 ± 0.033 | 1.02 ± 0.025 | 1.03 ± 0.025 | 0.638 ± 0.013 | 0.5597 ± 0.00058 | 0.966 ± 0.034 | 0.975 ± 0.015 | 1.01 ± 0.03 | 0.985 ± 0.019 | 0.999 ± 0.014 | 0.921 ± 0.016 | 0.718 ± 0.013 | 0.665 ± 0.0046 |
| HT1080 SOFT TISSUE | 1.02 ± 0.03 | 1.01 ± 0.017 | 0.992 ± 0.019 | 1.02 ± 0.023 | 0.638 ± 0.025 | 0.277 ± 0.012 | 0.113 ± 0.015 | 0.091 ± 0.0089 | 1.001 ± 0.0036 | 0.965 ± 0.044 | 0.935 ± 0.018 | 0.886 ± 0.024 | 0.798 ± 0.071 | 0.7 ± 0.046 | 0.402 ± 0.0042 | 0.324 ± 0.012 |
| MDAMB453 BREAST | 1.09 ± 0.021 | 1.07 ± 0.034 | 1.13 ± 0.048 | 1.06 ± 0.052 | 1.14 ± 0.076 | 0.959 ± 0.1 | 0.214 ± 0.041 | 0.161 ± 0.021 | 1.06 ± 0.051 | 1.03 ± 0.011 | 1.05 ± 0.045 | 1.09 ± 0.064 | 1.067 ± 0.009 | 1.14 ± 0.052 | 0.851 ± 0.061 | 0.711 ± 0.024 |
| NOS1 BONE | 0.939 ± 0.1 | 1.08 ± 0.028 | 0.945 ± 0.02 | 0.764 ± 0.039 | 0.209 ± 0.011 | 0.158 ± 0.02 | 0.223 ± 0.029 | 0.206 ± 0.036 | 0.877 ± 0.087 | 0.841 ± 0.063 | 0.795 ± 0.04 | 0.782 ± 0.14 | 1.02 ± 0.33 | 0.863 ± 0.038 | 0.557 ± 0.046 | 0.656 ± 0.25 |
| HOS BONE | 1.02 ± 0.017 | 1.02 ± 0.011 | 1.05 ± 0.039 | 1.03 ± 0.027 | 1.027 ± 0.0056 | 0.98 ± 0.028 | 0.15 ± 0.019 | 0.065 ± 0.0027 | 0.936 ± 0.0079 | 0.926 ± 0.023 | 0.9497 ± 0.0038 | 0.94 ± 0.017 | 1 ± 0.035 | 0.984 ± 0.014 | 0.589 ± 0.043 | 0.291 ± 0.039 |
| CAL120 BREAST | 0.9598 ± 0.0037 | 0.944 ± 0.011 | 0.985 ± 0.026 | 0.9663 ± 0.0029 | 0.902 ± 0.016 | 0.783 ± 0.027 | 0.2 ± 0.015 | 0.12 ± 0.018 | 0.901 ± 0.028 | 0.926 ± 0.022 | 0.903 ± 0.013 | 0.9 ± 0.023 | 0.819 ± 0.023 | 0.767 ± 0.021 | 0.546 ± 0.027 | 0.399 ± 0.0084 |
| MDAMB134 BREAST | 1.11 ± 0.1 | 1.02 ± 0.086 | 1.17 ± 0.039 | 1.075 ± 0.0064 | 1.08 ± 0.064 | 0.994 ± 0.047 | 0.752 ± 0.035 | 0.733 ± 0.0099 | 0.714 ± 0.15 | 0.771 ± 0.044 | 0.844 ± 0.011 | 0.724 ± 0.047 | 0.804 ± 0.04 | 0.862 ± 0.12 | 0.733 ± 0.091 | 0.753 ± 0.088 |
| LNCAP PROSTATE | 0.99 ± 0.088 | 0.951 ± 0.14 | 0.995 ± 0.082 | 0.921 ± 0.14 | 0.984 ± 0.065 | 0.544 ± 0.073 | 0.161 ± 0.012 | 0.0767 ± 0.013 | 1.18 ± 0.11 | 1.04 ± 0.038 | 1.14 ± 0.085 | 0.96 ± 0.15 | 1.03 ± 0.061 | 0.868 ± 0.076 | 0.847 ± 0.074 | 0.595 ± 0.072 |
| LM7 BONE | 0.957 ± 0.1 | 0.947 ± 0.065 | 0.999 ± 0.12 | 0.982 ± 0.15 | 0.751 ± 0.013 | 0.506 ± 0.032 | 0.146 ± 0.016 | 0.0563 ± 0.0015 | 0.745 ± 0.055 | 0.756 ± 0.039 | 0.834 ± 0.029 | 0.823 ± 0.091 | 0.91 ± 0.048 | 0.767 ± 0.05 | 0.402 ± 0.022 | 0.289 ± 0.044 |
